This data set is described as follows: Pharmacokinetic study in dogs after oral dosing of tablets with SNAC. The settings on record: dog, in vivo, po. It is filed as in vivo, Beagle dogs. How it is done:
The purpose of this example is to determine the half-life and plasma exposure in vivo of the compounds of the present invention after p.o. administration to beagle dogs, i.e. the terminal half-life and concentration of test substance that reaches circulation with time. This is done in a pharmacokinetic (PK) study, where these parameters of the compound in question are determined. By terminal half-life is generally meant the period of time it takes to halve a certain plasma concentration, measured after the initial distribution phase.
The amount of SNAC in the tablet composition was 100-300 mg, the amount of magnesium stearate in the tablet composition was 7.7 mg, and the target amount of each test substance in the tablet composition was 3-4 mg.
Male beagle dogs, 1-7 years of age and weighing 9-17 kg during the study period, were included in the study. The dogs were dosed in a fasting state. The dogs were group housed in pens (12 hours light: 12 hours dark), and fed individually and restrictedly once daily with Royal Canin Medium Adult dog food (Royal Canin Products, China Branch, or Brogaarden A/S, Denmark). The dogs were used for repeated PK studies with a suitable wash-out period between successive dosing. An appropriate acclimatization period was given prior to initiation of the first PK study. All handling, dosing, and blood sampling of the animals were performed by trained and skilled staff. Before the studies, the dogs were fasted overnight and from 0 to 4 hours after dosing. The dogs were restricted to water 1 hour before dosing until 4 hours after dosing, but otherwise had ad libitum access to water during the whole period.
The compositions were administered by a single oral dosing to the dogs in groups of 6-8 dogs. […] The mouth was then closed, and 10 mL of tap water was given by syringe or gavage to facilitate swallowing of the tablet.
For each blood sample time point, approximately 0.8 mL of whole blood was collected in a 1.5 mL EDTA-coated tube, which was gently turned to mix the sample with EDTA. Blood samples were collected in EDTA buffer (8 mM) and then centrifuged at 4° C. and 2000g for 10 minutes. Plasma was pipetted into Micronic tubes on dry ice, and kept at −20° C. or lower until analysis. Blood samples were taken as appropriate, for example from a venflon in the cephalic vein in the front leg for the first 2 hours and then with syringe from the jugular vein for the rest of the time points. The first few drops were allowed to drain from the venflon to avoid heparin saline from the venflon in the sample.
All blood samples were collected into test tubes containing EDTA for stabilisation and kept on ice until centrifugation. Plasma was separated from whole blood by centrifugation and the plasma was stored at −20° C. or lower until analysis.
The plasma was analysed for test substance using LC-MS (Liquid Chromatography-Mass Spectrometry) as known to the person skilled in the art. […] RP-HPLC separation was achieved using a linear gradient of 1:1 acetonitrile/methanol in 1% aqueous formic acid using either: a Phenomenex Onyx Monolithic C18 column (50×2.0 mm) and a flow rate of 0.8 mL/min at 30° C.; or an Agilent Poroshell 120 SB-C18 column (50×2.1 mm, 2.7 μm) at a flow rate of 0.4 mL/min at 60° C. The mass spectrometer was operated in either positive ionization SIM mode or positive ionization PRM mode.
For each individual animal, a plasma concentration-time profile was analysed by a non-compartmental model in Pharsight Phoenix WinNonLin ver. 6.4 software or other relevant software for PK analysis, and the resulting terminal half-life (t1/2), maximum plasma concentration per dose (Cmax/D), time for maximum plasma concentration (tmax), and area under the curve to infinity per dose (AUC/D) were determined. Summary statistics of pharmacokinetic results were presented as median (for tmax), harmonic mean ([…]), or arithmetic mean (Cmax, AUC).

The structures appear in SMILES notation. Starred links: 1 amine or outer side, 2 acyl side, 3 side chain; linkers in the order of their positions; H or OH if unused. Non-standard residues stand in square brackets, D forms with d. Residues, ends and D or L forms follow the SMILES beside them. Groups on a side chain read outwards from the residue. *: point of attachment. C18 diacid = O=C(O)CCCCCCCCCCCCCCCCC(=O)*; γGlu = O=C(O)[C@H](CCC(=O)[*:2])N[*:1]; εLys = N[C@@H](CCCCN[*:1])C(=O)[*:2]; AEEA = NCCOCCOCC(=O)O; Aib = CC(C)(N)C(=O)O

The compound `CC[C@H](C)[C@H](NC(=O)[C@H](Cc1ccccc1)NC(=O)[C@H](CCC(=O)O)NC(=O)[C@H](CCCNC(=N)N)NC(=O)[C@H](C)NC(=O)[C@H](C)NC(=O)[C@H](CCC(N)=O)NC(=O)[C@H](CCCCNC(=O)[C@@H](N)CCCCNC(=O)[C@@H](N)CCCCNC(=O)CC[C@H](NC(=O)CCCCCCCCCCCCCCCCC(=O)O)C(=O)O)NC(=O)[C@H](CCC(=O)O)NC(=O)[C@H](CC(C)C)NC(=O)[C@H](Cc1ccc(O)cc1)NC(=O)[C@@H](NC(=O)[C@H](CO)NC(=O)[C@H](Cc1ccc(O)cc1)NC(=O)[C@H](CC(=O)O)NC(=O)[C@H](CO)NC(=O)[C@@H](NC(=O)[C@H](Cc1ccccc1)NC(=O)[C@@H](NC(=O)CNC(=O)[C@H](CCC(=O)O)NC(=O)C(C)(C)NC(=O)[C@@H](N)Cc1ccc(O)cc1)[C@@H](C)O)[C@@H](C)O)[C@@H](C)CC)C(=O)N[C@@H](CCC(=O)O)C(=O)N[C@@H](Cc1c[nH]c2ccccc12)C(=O)N[C@@H](CC(C)C)C(=O)N[C@@H](CC(C)C)C(=O)N[C@@H](C)C(=O)NCC(=O)NCC(=O)N1CCC[C@H]1C(=O)N[C@@H](CO)C(=O)N[C@@H](CO)C(=O)NCC(=O)N[C@@H](C)C(=O)N1CCC[C@H]1C(=O)N1CCC[C@H]1C(=O)N1CCC[C@H]1C(=O)N[C@@H](CO)C(=O)O` [Compound No. 9] (H-Y[Aib]EGTFTSDYSIYLEK([εLys-εLys-γGlu-C18 diacid])QAAREFIEWLLAGGPSSGAPPPS-OH) displayed a Cmax/Dose of 0.24 kg/L.

Turning to `CC[C@H](C)[C@H](NC(=O)[C@H](Cc1ccccc1)NC(=O)[C@H](CCC(=O)O)NC(=O)[C@H](CCCNC(=N)N)NC(=O)[C@H](C)NC(=O)[C@H](C)NC(=O)[C@H](CCC(N)=O)NC(=O)[C@H](CCCCNC(=O)COCCOCCNC(=O)COCCOCCNC(=O)CC[C@H](NC(=O)CCCCCCCCCCCCCCCCC(=O)O)C(=O)O)NC(=O)[C@H](CCC(=O)O)NC(=O)[C@H](CC(C)C)NC(=O)[C@H](Cc1ccc(O)cc1)NC(=O)[C@@H](NC(=O)[C@H](CO)NC(=O)[C@H](Cc1ccc(O)cc1)NC(=O)[C@H](CC(=O)O)NC(=O)[C@H](CO)NC(=O)[C@@H](NC(=O)[C@H](Cc1ccccc1)NC(=O)[C@@H](NC(=O)CNC(=O)[C@H](CCC(=O)O)NC(=O)C(C)(C)NC(=O)[C@@H](N)Cc1ccc(O)cc1)[C@@H](C)O)[C@@H](C)O)[C@@H](C)CC)C(=O)N[C@@H](CCC(=O)O)C(=O)N[C@@H](Cc1c[nH]c2ccccc12)C(=O)N[C@@H](CC(C)C)C(=O)N[C@@H](CC(C)C)C(=O)N[C@@H](C)C(=O)NCC(=O)NCC(=O)N1CCC[C@H]1C(=O)N[C@@H](CO)C(=O)N[C@@H](CO)C(=O)NCC(=O)N[C@@H](C)C(=O)N1CCC[C@H]1C(=O)N1CCC[C@H]1C(=O)N1CCC[C@H]1C(=O)N[C@@H](CO)C(=O)O` [Compound No. 10] (H-Y[Aib]EGTFTSDYSIYLEK([AEEA-AEEA-γGlu-C18 diacid])QAAREFIEWLLAGGPSSGAPPPS-OH), the AUC/Dose stood at 8.4 kg·h/L and the Cmax/Dose came out at 0.20 kg/L.

The record behind these values is patent US20230272029A1, “CO-AGONISTS AT GLP-1 AND GIP RECEPTORS SUITABLE FOR ORAL DELIVERY” (Novo Nordisk A/S, priority 2020, published 2023).
